Drawing on ChEMBL document CHEMBL1129129, “Modelisation, synthesis and antiviral evaluation of new 2,3-disubstituted thiazolidinone nucleoside analogues” (Bioorg Med Chem Lett, 1996), this text covers IC50 and CC50 for seven molecules.

For orientation: IC50 means the concentration at which inhibition is half-maximal. Broadly, the CC50 is the concentration giving 50% cytotoxicity.

Assay [1] has as its system Anas sp. Description: Compound was tested for its antiviral activity against hepatitis B virus(DHBV) in duck fetal hepatocytes culture. Type of assay: functional, organism-based. The note with it: Hepatocyte.
In assay [2] the test system is Anas sp. The experiment in a line: Compound was tested for its cytotoxicity against duck hepatitis B virus in duck fetal hepatocytes culture. The note with it: Hepatocyte. Type of assay: functional.
The test system of assay [3] is MT4. The experiment in a line: Compound was tested to inhibit HIV-1 replication in MT-4 cell lines; value may range from 5 - 15. The note with it: Homo sapiens. In kind it is functional, cell-based.
The subject of assay [4] is MT4. Description: Compound was tested for its cytotoxicity against HIV-1 infected MT-4 cell lines. Type of assay: functional. The settings on record: Homo sapiens.
Assay [5] has as its system MT4. Description: Compound was tested to inhibit HIV-1 replication in MT-4 cell lines. Type of assay: functional, cell-based. The note with it: Homo sapiens.
Assay [6] relates to MT4. The experiment in a line: Compound was tested to inhibit HIV-1 replication in MT-4 cell lines; value may range from 1 - 10. Type of assay: functional, cell-based. The settings on record: Homo sapiens.

On to `Cc1cn(CCN2C(=O)CSC2CO)c(=O)[nH]c1=O` (stereo not drawn), for which the IC50 worked out at 2000 nM in the assay on Anas sp. [1] and 15 µM with MT4 [3]. In addition, the CC50 is no less than 200 µM in the assay with Anas sp. [2] and 100 µM with MT4 [4].

`Nc1ccn(CCN2C(=O)CSC2COC(=O)c2ccccc2)c(=O)n1` (stereo not drawn): the IC50 with MT4 [5] was no less than 100 µM. This molecule returned a half-maximal cytotoxic concentration (CC50) in the assay on MT4 [4] of roughly 100 µM.

In the case of `Nc1ncnc2c1ncn2CCN1C(=O)CSC1CO` (stereo not drawn), the IC50 with Anas sp. [1] is 2000 nM; in the assay on MT4 [6] it was 10 µM. In addition, the CC50 amounted to 200 µM in the assay with Anas sp. [2] and 100 µM in the assay with MT4 [4].

Turning to `Nc1nc(=O)n(CCN2C(=O)CSC2CO)cc1F` (stereo not drawn), the values for the IC50 with Anas sp. [1] and with MT4 [6] were 2000 nM and 10 µM, respectively. The results for the CC50 with Anas sp. [2] and in the assay with MT4 [4] were 150 µM and 100 µM, respectively.

`Nc1ccn(C2CS[C@H](CO)O2)c(=O)n1` (single isomer, unassigned) [LAMIVUDINE] had a 50% inhibitory concentration (IC50) with Anas sp. [1] of 100 nM. In addition, the values for the CC50 in the assay on Anas sp. [2] and in the assay with MT4 [4] were greater than 400 µM and 100 µM, respectively.

On to `Nc1nc(=O)n(CCN2C(=O)CSC2COC(=O)c2ccccc2)cc1F` (stereo not drawn), for which inhibition in the assay on MT4 [6] was half-maximal at 10 µM (IC50). For the same molecule, the midpoint of cytotoxicity in the assay on MT4 [4], the CC50, lay at 100 µM.

As to `Nc1ccn(CCN2C(=O)CSC2CO)c(=O)n1` (stereo not drawn), the IC50 is 2000 nM in the assay on Anas sp. [1] and no less than 300 µM with MT4 [5]. The half-maximal cytotoxic concentration (CC50) in the assay on Anas sp. [2] was 100 µM; in the assay on MT4 [4], roughly 300 µM.
